Assay results: article PMC9683861 (Journal of Molecular Biology, 2022)
Positions count from the first letter of the chain named. Entries after “also recorded” stand apart in the source; their conditions may differ. Non-standard residues stand in square brackets, D forms with d. Residues, ends and D or L forms follow the SMILES beside them. No end group written: not given here. *: point of attachment. FITC = O=C1OC2(c3ccc(O)cc3Oc3cc(O)ccc32)c2ccc(NC(=S)*)cc21; pT = C[C@@H](OP(=O)(O)O)[C@H](N)C(=O)O; pS = N[C@@H](COP(=O)(O)O)C(=O)O

What was measured:
14-3-3γ (gamma) = 14-3-3γ (gamma) (Homo sapiens, UniProt P61981); assay type: binding
14-3-3σ (sigma) = 14-3-3σ (sigma) (Homo sapiens, UniProt P31947); assay type: binding
14-3-3σ (sigma), sequence (P31947 whole entry, canonical isoform): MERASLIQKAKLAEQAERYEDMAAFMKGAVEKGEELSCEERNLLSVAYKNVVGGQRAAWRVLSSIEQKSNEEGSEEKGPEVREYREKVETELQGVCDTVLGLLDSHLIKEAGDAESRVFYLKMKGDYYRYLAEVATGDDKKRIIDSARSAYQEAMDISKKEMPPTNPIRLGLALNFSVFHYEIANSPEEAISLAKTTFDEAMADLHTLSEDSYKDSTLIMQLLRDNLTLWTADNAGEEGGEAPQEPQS

[1] = tested on: all seven human 14-3-3 isoforms; assay type: binding
14-3-3γ = 14-3-3γ (Homo sapiens, UniProt P61981); assay type: binding
[2] = molecular target: T1, Untagged full-length human 14-3-3γ (human, UniProt P61981 1-247); test: fluorescence polarisation
T1 sequence: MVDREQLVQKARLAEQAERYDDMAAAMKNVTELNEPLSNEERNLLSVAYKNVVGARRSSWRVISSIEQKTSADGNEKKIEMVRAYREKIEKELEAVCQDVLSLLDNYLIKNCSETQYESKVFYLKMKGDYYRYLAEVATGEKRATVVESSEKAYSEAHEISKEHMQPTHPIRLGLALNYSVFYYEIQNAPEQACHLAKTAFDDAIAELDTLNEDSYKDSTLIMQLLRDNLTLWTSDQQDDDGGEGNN

crystal structure = molecular target: the molecule itself; test: crystal structure

Molecule: O=C1OC2(c3ccc(O)cc3Oc3cc(O)ccc32)c2ccc(N=C=S)cc21 [free FITC, fluorescein 5-isothiocyanate, reference compound]
- Binding to MBP-14-3-3 (free FITC control) (14-3-3γ (gamma)): did not show significant binding

Molecule: CSCC[C@H](NC(=O)[C@H](CCCNC(=N)N)NC(=O)[C@H](C)NC(=O)[C@@H]1CCCN1C(=O)[C@H](CO)NC(=O)[C@@H](NC(=O)CNC(=O)[C@H](CCCNC(=N)N)NC(=O)[C@H](CO)NC(=O)[C@H](CO)NC(=O)[C@H](Cc1c[nH]c2ccccc12)NC(=S)Nc1ccc2c(c1)C(=O)OC21c2ccc(O)cc2Oc2cc(O)ccc21)[C@@H](C)OP(=O)(O)O)C(=O)O [pT205] ({FITC}-WSSRG[pT]SPARM-OH)
- Ratio: affinity of 14-3-3σ to pT205 versus pS197 peptide (14-3-3σ (sigma)): ~3 times tighter
- Affinity preference [1]: preferred over the pS197-motif by all seven human 14-3-3 isoforms; also recorded: consistently tighter affinity than the pS197 fragment
- KD ratio between weakest (14-3-3σ/pS197) and strongest (14-3-3γ/pT205) pair [1]: ~10 fold
- Order of affinity over the 14-3-3 isoforms [1]: gamma (γ) > eta (η) > beta (β) > epsilon (ε) > zeta (ζ) > tau (τ) > sigma (σ)
- Ratio of the average KD values pS197/pT205 [1]: 4.3 fold
- Selectivity coefficient (KD pS197 / KD pT205), gamma (14-3-3γ (gamma)): ~7

Molecule: WLRRApSAPLPGLK [pB6]
- Displacement of FITC-labeled peptide from 14-3-3 (14-3-3γ): could be disrupted

Molecule: WLRRA[pS]APLPGLK [Unlabeled phosphopeptide of human HSPB6 (pB6) WLRRApSAPLPGLK]
- binding result [2]: binds

B1: C-terminally truncated human 14-3-3σ (residues 1–231) Clu3 mutant (75EEK77 → 75AAA77) (domain or fragment)
chain: MERASLIQKAKLAEQAERYEDMAAFMKGAVEKGEELSCEERNLLSVAYKNVVGGQRAAWRVLSSIEQKSNEEGSAAAGPEVREYREKVETELQGVCDTVLGLLDSHLIKEAGDAESRVFYLKMKGDYYRYLAEVATGDDKKRIIDSARSAYQEAMDISKKEMPPTNPIRLGLALNFSVFHYEIANSPEEAISLAKTTFDEAMADLHTLSEDSYKDSTLIMQLLRDNLTLWT
- stoichiometry N (crystal structure): 2

B2: C-terminally truncated human 14-3-3σ (residues 1–231) Clu1 mutant (159KKE161 → 159AAA161) (domain or fragment)
chain: B1 chain with A75E, A76E, A77K, K159A, K160A, E161A
- stoichiometry N (crystal structure): 2
